These results are taken from ChEMBL document CHEMBL1821710, “Synthesis and antiproliferative evaluation of 3,5-disubstituted 1,2,4-triazoles containing flurophenyl and trifluoromethanephenyl moieties” (2011).

As usually defined, the GI50 is the concentration giving 50% growth inhibition. A higher GI50 goes with less potent growth inhibition.

Common to all, as to assay type: functional
In assay [1] the test system is NCI-H226. The assay can be described thus: Growth inhibition of human NCI-H226 cells after 72 hrs by MTT assay. As to conditions: NCI-H226, 72 h. On the technique in general: Formazan colour is commonly taken as a measure of viable cells.
For assay [2], the system named is Jurkat. The assay can be described thus: Growth inhibition of human Jurkat cells after 72 hrs by MTT assay.
Assay [3] can be described thus: Growth inhibition of human NPC-TW01 cells after 72 hrs by MTT assay. As to conditions: NPC-TW01, 72 h.

Bounds are passed on as bounds.

`COC(=O)c1nc(C2CC2)n(-c2ccc(F)cc2)n1`: the GI50 stood at 16.3 µM in assay [1], 9.42 µM in assay [2] and 95.9 µM in assay [3].
For the compound `COC(=O)c1nc(C)n(-c2ccccc2C(F)(F)F)n1`, the 50% growth inhibitory concentration (GI50) is 6.13 µM in assay [1], > 100 µM in assay [2] and > 100 µM in assay [3].
Consider `COC(=O)c1nc(-c2ccc[nH]2)n(-c2ccc(C(F)(F)F)cc2)n1`, for which the GI50 in assay [1] was 5.65 µM; in assay [2], > 100 µM; in assay [3], > 100 µM.
Turning to `COC(=O)c1nc(-c2ccsc2)n(-c2ccc(F)cc2)n1`, the GI50 in assay [1] stood at 6.94 µM; in assay [2], 54 µM; in assay [3], 10.7 µM.
On to `COC(=O)c1nc(C)n(-c2ccc(F)cc2)n1`, for which the GI50 was determined as 11.7 µM in assay [1], 8.7 µM in assay [2] and 15.2 µM in assay [3].
In the case of `COC(=O)c1nc(C2CCCCC2)n(-c2ccc(C(F)(F)F)cc2)n1`, the figures for the GI50 in assay [1], in assay [2] and in assay [3] were 5.76 µM, > 100 µM and > 100 µM, respectively.
In the case of `COC(=O)c1nc(-c2ccc[nH]2)n(-c2ccc(F)cc2)n1`, the GI50 was determined as 72 µM in assay [1], 9.01 µM in assay [2] and 9.58 µM in assay [3].
For the compound `COC(=O)c1nc(C)n(-c2ccc(OC)cc2)n1`, the results for the GI50 in assay [1], in assay [2] and in assay [3] were > 100 µM, > 100 µM and 9.92 µM, respectively.
Take `COC(=O)c1nc(-c2ccccc2)n(-c2ccc(F)cc2)n1`: the values for the GI50 in assay [1], in assay [2] and in assay [3] were 89.3 µM, 10 µM and 15.6 µM, respectively.
The like results for `CCOC(=O)c1nc(-c2ccc[nH]2)n(-c2ccc(F)cc2)n1` were, in that order, 5.71 µM, > 100 µM and 64.3 µM.
With `CCOC(=O)c1nc(-c2ccc[nH]2)n(-c2ccc(C(F)(F)F)cc2)n1`, the GI50 in assay [1] was 5.61 µM; in assay [2], > 100 µM; in assay [3] it was 76.4 µM.
The like results for `COC(=O)c1nc(C)n(-c2ccccc2)n1` were, in that order, > 100 µM, > 100 µM and > 100 µM.
The like results for `COC(=O)c1nc(C)n(-c2ccc(Cl)cc2)n1` were, in that order, 84 µM, 65.9 µM and 17.5 µM.
The like results for `CCc1nc(C(=O)OC)nn1-c1ccc(F)cc1` were, in that order, 71.3 µM, 11 µM and 15.8 µM.
Regarding `COC(=O)c1nc(C2CCCC2)n(-c2ccc(F)cc2)n1`, the values for the GI50 in assay [1], in assay [2] and in assay [3] were 70.5 µM, 9.55 µM and 10.4 µM, respectively.
As to `CCCCc1nc(C(=O)OC)nn1-c1ccc(F)cc1`, the GI50 is 6.4 µM in assay [1], > 100 µM in assay [2] and > 100 µM in assay [3].
In the case of `COC(=O)c1nc(C)n(-c2cccc(Br)c2)n1`, the values for the concentration for 50% growth inhibition (GI50) in assay [1], in assay [2] and in assay [3] were 7.35 µM, > 100 µM and > 100 µM, respectively.
`COC(=O)c1nc(C)n(-c2ccc(C(F)(F)F)cc2)n1`: the GI50 is 16.6 µM in assay [1], 9.1 µM in assay [2] and > 100 µM in assay [3].
As to `COC(=O)c1nc(C(C)C)n(-c2ccc(F)cc2)n1`, the figures for the concentration for 50% growth inhibition (GI50) in assay [1], in assay [2] and in assay [3] were 6.17 µM, > 100 µM and > 100 µM, respectively.
In the case of `COC(=O)c1nc(C)n(-c2cccc(C(F)(F)F)c2)n1`, the GI50 was 14.3 µM in assay [1], 10.6 µM in assay [2] and > 100 µM in assay [3].
As for `COC(=O)c1nc(C2CCCCC2)n(-c2ccc(F)cc2)n1`, the values for the GI50 in assay [1], in assay [2] and in assay [3] were 6.26 µM, > 100 µM and 30.5 µM, respectively.
The matching figures for `COC(=O)c1nc(-c2ccsc2)n(-c2ccc(C(F)(F)F)cc2)n1`: 5.74 µM, > 100 µM and 34.9 µM.
The matching figures for `CN(Cc1cnc2nc(N)nc(N)c2n1)c1ccc(C(=O)N[C@@H](CCC(=O)O)C(=O)O)cc1` [METHOTREXATE]: 10.2 µM, 1.25 µM and 0.1 µM.
The matching figures for `COC(=O)c1nc(C2CCCC2)n(-c2ccc(C(F)(F)F)cc2)n1`: 5.71 µM, > 100 µM and 56.4 µM.
Turning to `COC(=O)c1nc(-c2ccoc2)n(-c2ccc(C(F)(F)F)cc2)n1`, the GI50 in assay [1] was 6.01 µM; in assay [2] it was 97.2 µM; in assay [3], > 100 µM.
In the case of `COC(=O)c1nc(-c2ccoc2)n(-c2ccc(F)cc2)n1`, the GI50 is 91.6 µM in assay [1], 9.32 µM in assay [2] and 11.7 µM in assay [3].
On to `COC(=O)c1nc(-c2ccc3ccccc3c2)n(-c2ccc(F)cc2)n1`, for which the GI50 in assay [1] is 79.3 µM; in assay [2], 18.5 µM; in assay [3], > 100 µM.
